Among the data in ChEMBL document CHEMBL4483862, “Open-source discovery of chemical leads for next-generation chemoprotective antimalarials” (2018) are IC50 and IC90 values, retold here.

The assay deals with Plasmodium berghei. Briefly: Luciferase/luciferin-expressing antifolate-resistant parasites were used to infect a culture of HepG2 cells that were pre-incubated with compounds. Infected hepatocytes emit light due to the luciferase reaction. Assay results are presented as the percent inhibition of light emission compared to control. […]. Format: functional. The settings on record: sporozoite; for IC90: read-out: LUCIFERASE INFECTION ASSAY - IC90.

Where [1] appears, read: read-out: LUCIFERASE INFECTION ASSAY - IC50.

Molecules are shown by their SMILES.

For the compound `COc1ccc(C2C3CSc4ccccc4C3=NN2c2ccccc2)cc1` (stereo not drawn), the IC90 was over 8.86 µM. The IC50 (FFLUC_HILL_SLOPE 1.37, FFLUC_R_SQUARED 0.894, PBLUC_HILL_SLOPE 1.03, PBLUC_R_SQUARED 0.404, read-out: LUCIFERASE INFECTION ASSAY - IC50) amounted to 4.95 µM.

For the compound `CNC(=O)CNc1nc(-c2ccccn2)nc2scc(-c3ccccc3)c12`, the IC90 was 7.43 µM. For the same compound, the IC50 (PBLUC_HILL_SLOPE 4.47, PBLUC_R_SQUARED 0.505, read-out: LUCIFERASE INFECTION ASSAY - IC50) worked out at 4.55 µM.

As to `Cc1ccsc1CN(C)C(C)C(=O)Nc1cc(C(F)(F)F)ccc1N1CCOCC1` (stereo not drawn), the IC90 is over 10 µM. In addition, the IC50 (PBLUC_HILL_SLOPE 0.840, 16.2, PBLUC_R_SQUARED 0.288, 0.265, read-out: LUCIFERASE INFECTION ASSAY - IC50) is over 10 µM.

For the compound `CN(CCOc1ccccc1)C(=O)c1ccc(Cl)c(S(=O)(=O)N(Cc2ccccc2)c2ccccc2)c1`, the IC90 was over 10 µM. Also, the IC50 (HEPG2TOX_HILL_SLOPE 5.5, HEPG2TOX_R_SQUARED 0.0292, PBLUC_HILL_SLOPE 16, PBLUC_R_SQUARED 0.261, read-out: LUCIFERASE INFECTION ASSAY - IC50) came out at 9.56 µM.

For `CC(=C(C#N)C#N)c1ccc(Cl)cc1`, the IC90 was over 16.3 µM. Also, the IC50 (FFLUC_HILL_SLOPE 16.5, FFLUC_R_SQUARED 0.121, read-out: LUCIFERASE INFECTION ASSAY - IC50) was over 16.3 µM.

For the compound `Cc1cc(C)c(NC(=O)CNc2nn3cc(-c4ccccc4)nc3s2)c(C)c1`, the IC90 was over 10 µM. For the same compound, the IC50 (PBLUC_HILL_SLOPE 1.1, PBLUC_R_SQUARED 0.432, read-out: LUCIFERASE INFECTION ASSAY - IC50) was found to be 1.54 µM.

As to `CC(=O)c1ccc(N2CCN(c3nc4ccccc4s3)CC2)cc1`, the IC90 was over 10 µM. Also, the IC50 under setting [1] was 3.62 µM.

For the compound `O=C1c2ccccc2S(=O)(=O)N1c1ccccc1F`, the IC90 was over 10 µM. In addition, the IC50 under setting [1] is over 10 µM.

Turning to `Cc1nn(C)c2ncc(C(=O)Nc3ccc(F)c(Cl)c3)c(SC(C)C)c12`, the IC90 was over 8.4 µM. In addition, the IC50 under setting [1] is over 8.4 µM.

For `Cc1ccc(S(=O)(=O)N2CCC(C(=O)Nc3nnc(-c4ccc(Cl)cc4)o3)CC2)c(C)c1`, the 90% effect concentration (IC90) was over 10 µM. Moreover, the IC50 under setting [1] is over 10 µM.

In the case of `O=[N+]([O-])c1ccc2c(c1)S(=O)(=O)CC2Sc1cccs1` (stereo not drawn), the IC90 is over 10.1 µM. Moreover, for the setting “FFLUC_HILL_SLOPE 0.919, FFLUC_R_SQUARED 0.527, PBLUC_HILL_SLOPE 1.82, PBLUC_R_SQUARED 0.11, read-out: LUCIFERASE INFECTION ASSAY - IC50”, the IC50 is over 10.1 µM.

With `CCOc1ccc(C(C)NC(=O)c2nc(SC)ncc2Cl)cc1` (stereo not drawn), the IC90 was 4.29 µM. Further, the IC50 (HEPG2TOX_HILL_SLOPE 16.5, HEPG2TOX_R_SQUARED 0.52, PBLUC_HILL_SLOPE 11.3, PBLUC_R_SQUARED 0.138, read-out: LUCIFERASE INFECTION ASSAY - IC50) stood at 3.53 µM.

For `O=c1c2c([nH]c3c(-c4ccccc4)c(Cc4ccccc4)nn13)CCCC2`, the IC90 was over 9.28 µM. Further, the IC50 under setting [1] is over 9.28 µM.

With `O=C(Cn1c(CN2CCCCC2)nc2ccccc2c1=O)Nc1ccccc1Oc1ccccc1`, the IC90 is over 10 µM. Moreover, the IC50 under setting [1] was over 10 µM.

On to `C=C1S/C(=N\c2ccccc2OC)N(C(=O)c2c(-c3ccccc3Cl)noc2C)C12CCCCC2`, for which the IC90 is over 6.5 µM. The IC50 (FFLUC_HILL_SLOPE 28.3, FFLUC_R_SQUARED 0.328, HEPG2TOX_HILL_SLOPE 0.898, HEPG2TOX_R_SQUARED 0.613, PBLUC_HILL_SLOPE 1.13, PBLUC_R_SQUARED 0.144, read-out: LUCIFERASE INFECTION ASSAY - IC50) is 3.72 µM.

Turning to `Cc1cc2nc3n(c2cc1C)C1(Nc2ccccc2-3)C(=O)Nc2ccccc21` (stereo not drawn), the IC90 was determined as 3.6 µM. For the same compound, under “PBLUC_HILL_SLOPE 13.5, PBLUC_R_SQUARED 0.192, read-out: LUCIFERASE INFECTION ASSAY - IC50”, the IC50 worked out at 3.06 µM.

For the compound `CCC(C)c1ccc(-n2c(=O)c3ccccc3n3c(SCCc4ccncc4)nnc23)cc1` (stereo not drawn), the IC90 is 9.16 µM. Further, the IC50 (PBLUC_HILL_SLOPE 14.1, 1.41, PBLUC_R_SQUARED 0.703, 0.467, read-out: LUCIFERASE INFECTION ASSAY - IC50) came out at 5.1 µM.

On to `CCOc1cc(/C=C/c2ccc3cccc(O)c3n2)cc(Br)c1O`, for which the IC90 turned out to be 3.78 µM. Besides, under setting [1], the IC50 worked out at 3.28 µM.

As for `CNc1nc2cnc(Nc3ccc(OC(C)C)cc3)cc2n1-c1cc(OC)c(OC)c(OC)c1`, the IC90 was over 10 µM. Moreover, the IC50 (PBLUC_HILL_SLOPE 1.37, PBLUC_R_SQUARED 0.322, read-out: LUCIFERASE INFECTION ASSAY - IC50) amounted to 5.86 µM.

As to `Cc1cccc(NC(=O)CSc2nc3ccccc3c3nc(C)nn23)c1`, the IC90 worked out at 0.789 µM. In addition, for the setting “HEPG2TOX_HILL_SLOPE 1.51, HEPG2TOX_R_SQUARED 0.99, PBLUC_HILL_SLOPE 1.83, PBLUC_R_SQUARED 0.897, read-out: LUCIFERASE INFECTION ASSAY - IC50”, the IC50 was 0.237 µM.

Consider `COc1ccccc1Oc1ccc(NC(C)C(=O)N2CCCC2)cc1` (stereo not drawn), for which the IC90 was over 10 µM. Also, the IC50 (PBLUC_HILL_SLOPE 21.7, PBLUC_R_SQUARED 0.137, read-out: LUCIFERASE INFECTION ASSAY - IC50) stood at 9.85 µM.

For the compound `O=C(Nc1ccc2c(c1)nc1n2CCCCC1)C1CC=CCC1` (stereo not drawn), the IC90 is over 10 µM. Further, the IC50 under setting [1] is over 10 µM.

For `CCN(CC)CCn1c(NC(=O)c2cnc3c(cnn3C(C)C)c2)nc2ccccc21`, the IC90 was determined as 6.55 µM. Also, for the setting “PBLUC_HILL_SLOPE 2.78, PBLUC_R_SQUARED 0.504, read-out: LUCIFERASE INFECTION ASSAY - IC50”, the IC50 turned out to be 2.97 µM.

Take `Cc1cccc(Cn2nc(C(C)(C)C)cc2-c2nnc(SCC(=O)c3ccc(Cl)cc3)o2)c1`: the IC90 was over 6.86 µM. The IC50 (FFLUC_HILL_SLOPE 7.72, FFLUC_R_SQUARED 0.435, PBLUC_HILL_SLOPE 3.63, PBLUC_R_SQUARED 0.42, read-out: LUCIFERASE INFECTION ASSAY - IC50) came to 6.23 µM.

On to `CC(=O)c1ccc(-c2ccc(C(=O)N3CCCc4ccccc43)o2)cc1`, for which the IC90 was determined as 0.942 µM. Besides, the IC50 (PBLUC_HILL_SLOPE 1.77, PBLUC_R_SQUARED 0.773, read-out: LUCIFERASE INFECTION ASSAY - IC50) was 0.272 µM.

As for `Cc1cc(-c2onc(C)c2C(=O)Sc2ccccc2)no1`, the IC90 is over 11 µM. The IC50 (FFLUC_HILL_SLOPE 12.1, FFLUC_R_SQUARED 0.567, PBLUC_HILL_SLOPE 1.05, PBLUC_R_SQUARED 0.41, read-out: LUCIFERASE INFECTION ASSAY - IC50) was over 11 µM.

With `Cc1nn(-c2ccccc2)c(N2CCCC2)c1/C=N/O`, the IC90 is over 10 µM. Also, under setting [1], the IC50 was over 10 µM.

With `O=C1CSC(=O)N1CCN=Cc1c(O)n(-c2ccc(Cl)cn2)c(=O)c2ccccc12`, the IC90 is over 10 µM. Besides, the IC50 under setting [1] is over 10 µM.

For the compound `COc1ccc(CNC(=O)CCOc2ccc(C(C)(C)C)cc2)cc1OC`, the IC90 was over 10 µM. The IC50 (HEPG2TOX_HILL_SLOPE 0.891, HEPG2TOX_R_SQUARED 0.4, PBLUC_HILL_SLOPE 0.658, PBLUC_R_SQUARED 0.48, read-out: LUCIFERASE INFECTION ASSAY - IC50) was 4.6 µM.

`CC(C)N1CCN(c2ccc(-c3cn4c(-c5cccc(O)c5)cnc4cn3)cc2)CC1`: the IC90 is over 7.98 µM. The IC50 (PBLUC_HILL_SLOPE 3.65, PBLUC_R_SQUARED 0.123, read-out: LUCIFERASE INFECTION ASSAY - IC50) was over 7.98 µM.

For `COc1ccc(NS(=O)(=O)c2ccc3oc(SC(C)C(=O)N4CCNC4=O)nc3c2)cc1` (stereo not drawn), the IC90 is over 10 µM. In addition, the IC50 under setting [1] is over 10 µM.

For the compound `COc1ccccc1NC(=O)c1ccc(NC(=O)Cn2ncc(Cl)c(Cl)c2=O)cc1`, the IC90 stood at 4.54 µM. For the same compound, the IC50 under setting [1] stood at 3.41 µM.

For `O=C(NNC(=O)c1cc2c(s1)CCCCC2)c1ccccn1`, the IC90 was 8.35 µM. Besides, under “PBLUC_HILL_SLOPE 4.79, PBLUC_R_SQUARED 0.138, read-out: LUCIFERASE INFECTION ASSAY - IC50”, the IC50 came to 5.28 µM.

For `FC(F)(F)c1cccnc1N1CCN(c2ccc(NC(=S)NCc3ccccc3)cn2)CC1`, the IC90 is over 6.98 µM. The IC50 under setting [1] was over 6.98 µM.

As to `Cc1c(N/N=C(/C(=O)Nc2ccccc2)C(=O)c2ccccc2)c(=O)n(-c2ccccc2)n1C`, the IC90 is over 10 µM. For the setting “PBLUC_HILL_SLOPE 4.97, PBLUC_R_SQUARED 0.638, read-out: LUCIFERASE INFECTION ASSAY - IC50”, the IC50 is 8.09 µM.

As for `Cc1cc(C(=O)Cn2cnc3ccccc32)c(C)n1-c1ccccn1`, the IC90 is over 10 µM. Further, the IC50 (PBLUC_HILL_SLOPE 9.42, PBLUC_R_SQUARED 0.321, read-out: LUCIFERASE INFECTION ASSAY - IC50) was found to be 9.29 µM.

Turning to `CCCCC1(Cc2ccccc2)C(=O)c2cccc3c4ccccc4n(c23)C1=O` (stereo not drawn), the IC90 was over 8.65 µM. Further, the IC50 (PBLUC_HILL_SLOPE 2.19, PBLUC_R_SQUARED 0.0283, read-out: LUCIFERASE INFECTION ASSAY - IC50) worked out at 8.01 µM.

Turning to `CCS(=O)(=O)N1CCC(C(=O)Nc2nc3ccc(Oc4ccccc4)cc3s2)CC1`, the IC90 was over 10 µM. For the same compound, the IC50 (HEPG2TOX_HILL_SLOPE 0.324, HEPG2TOX_R_SQUARED 0.65, PBLUC_HILL_SLOPE 2.34, PBLUC_R_SQUARED 0.492, read-out: LUCIFERASE INFECTION ASSAY - IC50) is 5.6 µM.

`CCCCN(Cc1nc(=O)c2ccccc2[nH]1)C(=O)c1cc2c(F)cccc2s1`: the IC90 is over 10 µM. Further, where the note is “HEPG2TOX_HILL_SLOPE 1.1, HEPG2TOX_R_SQUARED 0.0883, read-out: LUCIFERASE INFECTION ASSAY - IC50”, the IC50 is over 10 µM.
